The source of these data is ChEMBL document CHEMBL5338731, “Development of Neuropeptide Hemokinin-1 Analogues with Antimicrobial and Wound-Healing Activity” (J Med Chem, 2023).

Calls of active or inactive are those of the source. The calls are words filed in the database; no cut-off is given here.

Data set [1] is described as follows: Hemolytic activity in mouse erythrocytes assessed as haemoglobin release at 10 uM incubated for 1 hrs by microplate reader method. The data set is classed as toxicity, cell-based, Erythrocyte. Conditions: read-out: Activity.
For data set [2], the system named is Cell membrane. Description: Induction of cell membrane disruption in Escherichia coli ATCC 25922 assessed as sparse cytoplasmic distribution at 2 times MIC incubated for 2 hrs by TEM analysis. It counts as subcellular.
Data set [3] has as its system NIH3T3. In words: Induction of cell migration in mouse NIH3T3 cells assessed as […] at 0.1 to 1000 nM incubated for 48 hrs by phase-contrast microscopy based scratch wound healing assay. Conditions: dose 0.1-1000 nM. It counts as functional.
The nature of data set [4]: Cytotoxicity against mouse RAW264.7 cells assessed as cell survival rate at 16 uM incubated for 24 hrs by MTT assay. It counts as toxicity, cell-based. Conditions: read-out: Survival.
Data set [5] concerns RAW264.7. Description: Anti-inflammatory activity against LPS-stimulated mouse RAW264.7 cells assessed as reduction in TNF-alpha mRNA expression level at 1 to 16 uM incubated for 4 hrs by RT-qPCR analysis. The data set is classed as functional, cell-based. The following applies: dose 1-16 µM. (In general: Real-time PCR tracks product formation cycle by cycle.)
Data set [6] concerns Cell membrane. Description: Induction of cell membrane disruption in Staphylococcus aureus ATCC 25923 assessed as sparse cytoplasmic distribution at 2 times MIC incubated for 2 hrs by TEM analysis. The data set is classed as subcellular.
The test system of the next data set is Lipopolysaccharide (LPS). Description: Binding affinity to Escherichia coli O111:B4 LPS assessed as dissociation constant by ITC assay. In general terms: Isothermal titration calorimetry measures the heat released or taken up as one component is titrated into another.
Data set [7] has as its system Cell membrane. Description: Induction of cell membrane disruption in Staphylococcus aureus ATCC 25923 assessed as coagulation of cytoplasmic elements at 2 times MIC incubated for 2 hrs by TEM analysis. The data set is classed as subcellular.
The species named for data set [8] is Mus musculus. Description: Wound healing activity in Kunming mouse full-thickness excisional wound model assessed as increase in wound closure at 1 10^-7M, TOP BID and measured upto 8 days by image analysis. The data set is classed as functional, organism-based. The following applies: time <= 8.0 day.
In data set [9] the test system is Pseudomonas aeruginosa. Description: Antimicrobial activity against Pseudomonas aeruginosa PAO1 assessed as inhibition of bacterial growth incubated for 18 hrs by serial dilution method. It counts as functional.
Another data set concerns Bacillus subtilis. Description: Antimicrobial activity against Bacillus subtilis ATCC 23857 assessed as inhibition of bacterial growth incubated for 18 hrs by serial dilution method. It counts as functional.
Data set [10] deals with RAW264.7. Description: Anti-inflammatory activity in LPS-stimulated mouse RAW264.7 cells assessed as inhibition of NO production at 16 uM incubated for 24 hrs by Griess reagent based assay. It counts as functional, cell-based.
Data set [11] has as its system Escherichia coli. Description: Antimicrobial activity against Escherichia coli ATCC 25922 assessed as inhibition of bacterial growth incubated for 18 hrs by serial dilution method. The data set is classed as functional.
In data set [12] the test system is Cell membrane. Description: Induction of cell membrane disruption in Escherichia coli ATCC 25922 assessed as PI uptake at 2 times MIC incubated for 1 hrs by PI staining based confocal laser scanning microscopy. The data set is classed as subcellular.
For data set [13], the system named is Escherichia coli. Description: Bactericidal activity against Escherichia coli ATCC 25922 assessed as reduction in colony forming unit at 1 times MIC and measured after 120 mins by time-kill kinetics assay. It counts as functional, organism-based.
The test system of data set [14] is RAW264.7. In words: Anti-inflammatory activity against LPS-stimulated mouse RAW264.7 cells assessed as reduction in IL-1beta mRNA expression level at 1 to 16 uM incubated for 4 hrs by RT-qPCR analysis. The data set is classed as functional, cell-based. Conditions: dose 1-16 µM.
The species entered for data set [15] is Mus musculus. In words: Wound healing activity in STZ-induced Kunming mouse diabetic wound model assessed as increase in wound repair at 1 10^-7M, TOP BID and measured upto 8 days by image analysis. It counts as functional, organism-based. Conditions: time <= 8.0 day.
A short description of data set [16]: Hemolytic activity in mouse erythrocytes assessed as haemoglobin release at 400 uM incubated for 1 hrs by microplate reader method. Conditions: read-out: Activity. It counts as toxicity, cell-based, Erythrocyte.
In data set [17] the test system is Cell membrane. Description: Induction of cell membrane disruption in Escherichia coli ATCC 25922 assessed as distinct wrinkling in cell morphology at 2 times MIC incubated for 2 hrs by SEM analysis. It counts as subcellular.
Data set [18] concerns Staphylococcus aureus. In words: Bactericidal activity against Staphylococcus aureus ATCC 25923 assessed as reduction in colony forming unit at 2 times MIC and measured after 120 mins by time-kill kinetics assay. The data set is classed as functional, organism-based.
In data set [19] the test system is Staphylococcus aureus. In words: Antimicrobial activity against Staphylococcus aureus ATCC 29213 assessed as inhibition of bacterial growth incubated for 18 hrs by serial dilution method. It counts as functional.
In data set [20] the test system is Cell membrane. Description: Induction of cell membrane disruption in Escherichia coli ATCC 25922 assessed as coagulation of cytoplasmic elements at 2 times MIC incubated for 2 hrs by TEM analysis. The data set is classed as subcellular.
Data set [21] has as its system Cell membrane. In words: Induction of cell membrane disruption in Escherichia coli ATCC 25922 assessed as membrane blebbing at 2 times MIC incubated for 2 hrs by SEM analysis. The data set is classed as subcellular.
For data set [22], the species on record is Mus musculus. Description: Wound healing activity in Staphylococcus aureus ATCC 25923 infected Kunming mouse excisional wound model assessed as increase in wound repair at 1 10^-4M, TOP BID and measured upto 8 days by image analysis. Conditions: time <= 8.0 day. It counts as functional, organism-based.
For data set [23], the system named is Cell membrane. Description: Induction of cell membrane disruption in Staphylococcus aureus ATCC 25923 assessed as PI uptake at 2 times MIC incubated for 1 hrs by PI staining based confocal laser scanning microscopy. The data set is classed as subcellular.
The species entered for data set [24] is Mus musculus. In words: Antimicrobial activity in Staphylococcus aureus ATCC 25923 infected Kunming mouse excisional wound model assessed as decrease in bacterial growth at 1 10^-4M, TOP BID and measured upto 8 days by image analysis. The following applies: time <= 8.0 day. It counts as functional, organism-based.
Data set [25] deals with Escherichia coli. Description: Bactericidal activity against Escherichia coli ATCC 25922 assessed as reduction in colony forming unit at 4 times MIC and measured after 60 mins by time-kill kinetics assay. The data set is classed as functional, organism-based.
Data set [26] relates to Cell membrane. In words: Induction of inner cell membrane permeabilization in Escherichia coli ML-35 assessed as increase in absorbance at 1 to 8 times of MIC and measured every 5mins for 90 mins by ONPG beta-galactosidase based assay. It counts as subcellular.
In data set [27] the test system is NIH3T3. In words: Induction of cell proliferation in mouse NIH3T3 cells assessed as increase in cell viability at 0.1 to 1000 nM incubated for 48 hrs by MTT assay. The data set is classed as functional, cell-based. The following applies: dose 0.1-1000 nM. Background: Formazan colour is commonly taken as a measure of viable cells.
For data set [28], the system named is Cell membrane. Description: Induction of cell membrane disruption in Escherichia coli ATCC 25922 assessed as separation between outer membrane and cytoplasmic membrane at 2 times MIC incubated for 2 hrs by TEM analysis. It counts as subcellular.
The subject of data set [29] is Staphylococcus aureus. In words: Bactericidal activity against Staphylococcus aureus ATCC 25923 assessed as reduction in colony forming unit at 1 to 4 times MIC and measured after 120 mins by time-kill kinetics assay. It counts as functional, organism-based.
The species entered for data set [30] is Mus musculus. In words: Wound healing activity in Kunming mouse full-thickness excisional wound model assessed as increase in wound closure at 0.1 to 10 uM, TOP BID and measured upto 8 days by image analysis. It counts as functional, organism-based. The following applies: dose 0.1-10 µM, time <= 8.0 day.
In data set [31] the test system is Escherichia coli. Description: Antimicrobial activity against Escherichia coli ML-35 assessed as inhibition of bacterial growth incubated for 18 hrs by serial dilution method. It counts as functional.
Data set [32] has as its system Cell membrane. Description: Induction of cell membrane disruption in Staphylococcus aureus ATCC 25923 assessed as membrane blebbing at 2 times MIC incubated for 2 hrs by SEM analysis. The data set is classed as subcellular.
The subject of data set [33] is Escherichia coli. Description: Bactericidal activity against Escherichia coli ATCC 25922 assessed as reduction in colony forming unit at 2 times MIC and measured after 90 mins by time-kill kinetics assay. It counts as functional, organism-based.
Data set [34] relates to Cell membrane. In words: Induction of outer cell membrane permeability in Escherichia coli ATCC 25922 assessed as increase fluoresence intensity at 1 to 8 times of MIC and measured every mins for 15 mins by NPN uptake assay. The data set is classed as subcellular.
Data set [35] concerns RAW264.7. In words: Anti-inflammatory activity against LPS-stimulated mouse RAW264.7 cells assessed as reduction in IL-6 mRNA expression level at 1 to 16 uM incubated for 4 hrs by RT-qPCR analysis. The data set is classed as functional, cell-based. The following applies: dose 1-16 µM.
The subject of data set [36] is Cell membrane. In words: Induction of cell membrane disruption in Staphylococcus aureus ATCC 25923 assessed as separation between […] at 2 times MIC incubated for 2 hrs by TEM analysis. The data set is classed as subcellular.
For data set [37], the species on record is Mus musculus. In words: Wound healing activity in Kunming mouse full-thickness excisional wound model with splints assessed as increase in wound healing rate at 1 10^-7M, TOP BID and measured upto 8 days by image analysis. The data set is classed as functional, organism-based. Conditions: time <= 8.0 day.
In data set [38] the test system is HEK293. In words: Induction of cell proliferation in human HEK293 cells expressing NK1R assessed as increase in cell viability at 0.1 to 1000 nM incubated for 48 hrs by MTT assay. The following applies: dose 0.1-1000 nM. It counts as functional, cell-based.
For data set [39], the system named is HEK293. Description: Induction of cell proliferation in human HEK293 cells assessed as increase in cell viability at 0.1 to 1000 nM incubated for 48 hrs by MTT assay. It counts as functional, cell-based. The following applies: dose 0.1-1000 nM.
Data set [40] concerns Staphylococcus aureus. Description: Antimicrobial activity against Staphylococcus aureus ATCC 25923 assessed as inhibition of bacterial growth incubated for 18 hrs by serial dilution method. It counts as functional.
The test system of data set [41] is Cell membrane. In words: Induction of cell membrane disruption in Staphylococcus aureus ATCC 25923 assessed as distinct wrinkling in cell morphology at 2 times MIC incubated for 2 hrs by SEM analysis. It counts as subcellular.
Data set [42] concerns Pseudomonas aeruginosa. In words: Antimicrobial activity against Pseudomonas aeruginosa ATCC 27853 assessed as inhibition of bacterial growth incubated for 18 hrs by serial dilution method. The data set is classed as functional.

As to `CC[C@H](C)[C@H](NC(=O)CN)C(=O)NCC(=O)N[C@@H](C)C(=O)N[C@H](C(=O)N[C@@H](CC(C)C)C(=O)N[C@@H](CCCCN)C(=O)N[C@H](C(=O)N[C@@H](CC(C)C)C(=O)N[C@H](C(=O)N[C@H](C(=O)NCC(=O)N[C@@H](CC(C)C)C(=O)N1CCC[C@H]1C(=O)N[C@@H](C)C(=O)N[C@@H](CC(C)C)C(=O)N[C@H](C(=O)N[C@@H](CO)C(=O)N[C@@H](Cc1c[nH]c2ccccc12)C(=O)N[C@H](C(=O)N[C@@H](CCCCN)C(=O)N[C@@H](CCCNC(=N)N)C(=O)N[C@@H](CCCCN)C(=O)N[C@@H](CCCNC(=N)N)C(=O)N[C@@H](CCC(N)=O)C(=O)N[C@@H](CCC(N)=O)C(N)=O)[C@@H](C)CC)[C@@H](C)CC)[C@@H](C)O)[C@@H](C)O)C(C)C)C(C)C` [MELITTIN], the hemolysis at 1 h, 10 µM in [1] came to 58.8%.
By Kd is commonly meant a measure of binding affinity in units of concentration. What is called MIC is the least concentration at which growth counts as inhibited. For the compound H-LKKWLKKWTLKASQFFGLM-NH2, the result with Cell membrane [2], in the data set on NIH3T3 [3], with Cell membrane [6], in the data set on Cell membrane [7], in the data set listed under Mus musculus [8] and in the data set with Cell membrane [12] was Active. Moreover, the outcome in the data set with Escherichia coli [13], in the data set listed under Mus musculus [15], in the data set with Cell membrane [17], in the data set on Staphylococcus aureus [18], in the data set on Cell membrane [20] and in the data set on Cell membrane [21] was Active. Moreover, the outcome in the data set on Cell membrane [23], in the data set listed under Mus musculus [24], in the data set with Escherichia coli [25], with Cell membrane [26], in the data set with NIH3T3 [27] and in the data set with Cell membrane [28] was Active. The result in the data set on Staphylococcus aureus [29], in the data set with Cell membrane [32], in the data set on Escherichia coli [33], with Cell membrane [36], in the data set filed under Mus musculus [37] and in the data set with HEK293 [38] was Active. Besides, the outcome with Cell membrane [41] was Active. The viability at 24 h, 16 µM in [4] was over 90%. Besides, the Activity entry with RAW264.7 [5], in the data set with RAW264.7 [14], with Cell membrane [34] and in the data set on RAW264.7 [35] was “Dose-Dependent Effect” in each case. In the data set on Lipopolysaccharide (LPS), the Kd came to 13.4 µM. For the same compound, the MIC in the data set with Pseudomonas aeruginosa [9] was found to be 2 µM; with Bacillus subtilis, 2 µM; in the data set with Escherichia coli [11], 2 µM; with Staphylococcus aureus [19] it was 4 µM; with Escherichia coli [31] it was 2 µM; in the data set with Staphylococcus aureus [40], 2 µM. In the data set on Pseudomonas aeruginosa [42], the MIC was 2 µM. Also, the inhibition result with RAW264.7 [10] was “Active”. Also, in [16], the hemolysis at 1 h, 400 µM is 19.5%. For the same compound, the result in the data set filed under Mus musculus [22], in the data set listed under Mus musculus [30] and in the data set with HEK293 [39] was inactive.
